Source: patent US20250186408A1, “TREATMENT OF PHARMACORESISTANT EPILEPSY” (Katholieke Universiteit Leuven, priority 2021, published 2025)
Converted amounts (≈) assume the structure as drawn. Read-outs that look alike come from different tables or passages of the source.

Columns and labels:
male NMRI mice = assay: Mouse 6-Hz (44 mA) psychomotor seizure model; type: in vivo; conditions: 30 min before stimulation; for dose-response relationship (in words): i.p.
Experimental: The antiseizure activity of compounds was investigated in the mouse 6-Hz (44 mA) psychomotor seizure model as described before (27). […] Seizure behaviour was video recorded and seizure durations were determined by blinded video analysis by experienced researchers, familiar with the different seizure characteristics. Data are expressed as mean±SD.
The 6-Hz 44 mA model is an acute model of pharmacoresistant focal impaired awareness seizures, previously referred to as complex partial or psychomotor seizures that are induced by a low frequency, long duration corneal electrical stimulation (6 Hz, 0.2 ms rectangular pulse width, 3 s duration, 44 mA). Seizures are typically characterized by a clonic phase and stereotypical automatic behaviours like stun, forelimb clonus, Straub tail and vibrissae twitching.

Aqueous solubility = type: physicochemical
From the text: In vitro ADME profiling of compounds was done by Eurofins Panlabs Inc (St Charles, MO, USA) using their ADME-Tox service (Cat Ref P375, Tier 1 ADME Panel). […] (28). The atom-based log P calculation method, called OsirisP, uses as an increment system and adds contributions of every atom based on its atom type. The prediction engine distinguishes a total of 368 atom types and was optimized using a training set of more than 5000 molecules with experimentally determined log P values. The free prediction engine has proven to outperform many alternative calculation methods (29).
SGF, SIF and PBS buffers were prepared as follows: 34.2 mM NaCl, 84.7 mM HCl, 3.2 g/L pepsin (pH 2) for SGF, 50 mM KH2PO4, 38 mM NaOH, 10 g/L pancreatin (pH 7.5) for SIF and 137 mM NaCl, 2.7 mM KCl, 8.1 mM Na2HPO4 and 1.5 mM KH2PO4 (pH 7.4) for PBS. Test compounds were prepared at 200 μM concentrations in the corresponding buffer from a 10 mM stock solution (final solvent concentration of 2% DMSO). Buffer samples were mixed thoroughly followed by a 24 h incubation at room temperature. Samples were centrifuged and the supernatant was used for HPLC analysis. A calibration standard of the test compound was prepared at 200 μM in methanol/water (3:2 v/v) from the stock solution on the day of the analysis. Metoprolol, rifampicin, ketoconazole, phenytoin, haloperidol, simvastatin, diethylstilbestrol and tamoxifen were included in each assay. Aqueous solubility (μM) was determined by comparing peak areas.

ADORA2A = ADORA2A (Homo sapiens, UniProt P29274); assay: Calcium Flux ADORA2A Antagonist; type: cell-based; conditions: for IC50: read-out: RC50, result type IC50; for Emax: read-out: Max response
Experimental: (§1) (≤0.2% DMSO concentration). Assays were performed in 1× dye loading buffer consisting of 1× Dye (DiscoverX, Calcium No Wash^PLUS kit, Catalog No. 90-0091), 1× Additive A and 2.5 mM Probenecid in HBSS/20 mM HEPES. Probenecid was prepared fresh. Prior to testing, media was aspirated from cells and replaced with 25 μL dye loading buffer. Cells were incubated for 45 min at 37° C. and then 20 min at RT. For agonist determination, 25 μL of 2× compound in HBSS/20 mM HEPES was added using a FLIPR Tetra (MDS). […] 25 μL of 2× sample was added and cells were incubated for 30 min at RT in the dark to equilibrate plate temperature. After incubation, antagonist determination was initiated by addition of 25 μL of 1× compound with 3×EC80 agonist using FLIPR. For both agonist and antagonist formats, activity was measure on a FLIPR Tetra (MDS). Calcium mobilization was monitored for 2 min with a 5 sec baseline read.
(§2) FLIPR read—Area under the curve, was calculated for the entire 2 min read.

CCKAR = target: T1, CCKAR (Homo sapiens, UniProt P32238); assay: Calcium Flux CCKAR Antagonist; type: cell-based; conditions: for IC50: read-out: RC50, result type IC50; for Emax: read-out: Max response
T1 sequence (P32238 1-428): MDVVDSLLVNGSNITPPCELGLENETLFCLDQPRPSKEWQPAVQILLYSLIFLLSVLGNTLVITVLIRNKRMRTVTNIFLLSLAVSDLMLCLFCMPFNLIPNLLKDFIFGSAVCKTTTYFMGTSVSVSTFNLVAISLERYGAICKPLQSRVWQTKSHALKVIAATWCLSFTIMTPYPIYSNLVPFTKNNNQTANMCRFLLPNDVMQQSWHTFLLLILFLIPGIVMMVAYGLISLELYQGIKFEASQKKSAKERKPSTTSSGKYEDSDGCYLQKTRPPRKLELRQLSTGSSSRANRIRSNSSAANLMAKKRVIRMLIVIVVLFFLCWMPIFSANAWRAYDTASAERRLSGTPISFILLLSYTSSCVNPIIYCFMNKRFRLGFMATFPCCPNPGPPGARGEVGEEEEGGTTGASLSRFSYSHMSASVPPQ
Experimental: as §1, §2

HRH1 = HRH1 (Homo sapiens, UniProt P35367); assay: Calcium Flux HRH1 Antagonist; type: cell-based; conditions: for Emax: read-out: Max response
Experimental: as §1, §2

hERG = hERG (Homo sapiens, UniProt Q12809); assay: Ion Channel hERG Blocker; type: cell-based; conditions: for Emax at 30 min: human, read-out: Max response; for IC50: read-out: RC50, result type IC50
nAChR (a4/b2) = nAChR (a4/b2) (Homo sapiens, UniProt P17787+P43681); assay: Ion Channel nAChR (a4/b2) Blocker; type: cell-based; conditions: for Emax: Ion Channel nAChR (a4/b2) Blocker, read-out: Max response
CNR2 = CNR2 (Homo sapiens, UniProt P34972); assay: cAMP CNR2 Agonist; conditions: for Emax: read-out: Max response
Experimental: (§3) In vitro pharmacological profiling of compounds was done against 78 functional assays for 47 common off-targets (30) by Eurofins DiscoverX Corporation (Fremont, CA, USA) using their SAFETYscan E/IC50 ELECT service (Cat Ref 87-1003DR, Safety47 Panel Dose Response). […] Compounds were tested in a range of 10 concentrations, following a 3-fold serial dilution, starting from 10 μM. The assays were performed utilizing the PathHunter enzyme fragment complementation (EFC) technology, FLIPR®-based cellular screening assays, and KINOMEscan kinase binding assays.
(§4) cAMP Hunter cell lines were expanded from freezer stocks. Prior to testing, cells were seeded in a total volume of 20 μL into white walled 384-well microplates and incubated at 37° C. cAMP modulation was determined using the DiscoverX HitHunter cAMP XS+ assay. For Gs agonist determination, cells were incubated with sample to induce response. For Gi agonist determination, cells were incubated with sample in the presence of EC80 forskolin to induce response. For both conditions, media was aspirated from cells and replaced with 15 μL 2:1 HBSS/10 mM HEPES:cAMP XS+ Ab reagent. Intermediate dilution of sample stocks was performed to generate 4× sample in assay buffer (containing 4×EC80 forskolin in the case of antagonist determination). 5 μL of 4× sample was added to cells and incubated at 37° C. or room temperature (RT) for 30 or 60 min. Final assay vehicle concentration was 1%. For antagonist determination, cells were pre-incubated with sample followed by agonist challenge at the EC80 concentration. Media was aspirated from cells and replaced with 10 μL 1:1 HBSS/HEPES:cAMP XS+ Ab reagent. 5 μL of 4× compound was added to the cells and incubated at 37° C. or RT for 30 min. 5 μL of 4×EC80 agonist was added to the cells and incubated at 37° C. or RT for 30 or 60 min. For Gi coupled GPCRs, EC80 forskolin was included. […] Microplates were read following signal generation with a PerkinElmer Envision™ instrument for chemiluminescent signal detection. Compound activity was analyzed using CBIS data analysis suite (ChemInnovation, CA).

DRD2S = DRD2S (Homo sapiens, UniProt P14416); assay: cAMP DRD2S Agonist; conditions: for Emax: read-out: Max response
Experimental: (§5) In vitro pharmacological profiling of compounds was done against 78 functional assays for 47 common off-targets (30) by Eurofins DiscoverX Corporation (Fremont, CA, USA) using their SAFETYscan E/IC50 ELECT service (Cat Ref 87-1003DR, Safety47 Panel Dose Response). […] Compounds were tested in a range of 10 concentrations, following a 3-fold serial dilution, starting from 10 μM.
as §4

OPRM1 [1] = target: T2, OPRM1 (Homo sapiens, UniProt P35372); assay: cAMP OPRM1 Agonist; conditions: for Emax: OPRM1, read-out: Max response
Experimental: as §5
(§6) cAMP Hunter cell lines were expanded from freezer stocks. Prior to testing, cells were seeded in a total volume of 20 μL into white walled 384-well microplates and incubated at 37° C. cAMP modulation was determined using the DiscoverX HitHunter cAMP XS+ assay. For Gs agonist determination, cells were incubated with sample to induce response. For Gi agonist determination, cells were incubated with sample in the presence of EC80 forskolin to induce response. For both conditions, media was aspirated from cells and replaced with 15 μL 2:1 HBSS/10 mM HEPES:cAMP XS+ Ab reagent. Intermediate dilution of sample stocks was performed to generate 4× sample in assay buffer (containing 4×EC80 forskolin in the case of antagonist determination). 5 μL of 4× sample was added to cells and incubated at 37° C. or room temperature (RT) for 30 or 60 min. Final assay vehicle concentration was 1%. For antagonist determination, cells were pre-incubated with sample followed by agonist challenge at the EC80 concentration. Media was aspirated from cells and replaced with 10 μL 1:1 HBSS/HEPES:cAMP XS+ Ab reagent. 5 μL of 4× compound was added to the cells and incubated at 37° C. or RT for 30 min. 5 μL of 4×EC80 agonist was added to the cells and incubated at 37° C. or RT for 30 or 60 min. For Gi coupled GPCRs, EC80 forskolin was included. […] Microplates were read following signal generation with a PerkinElmer Envision™ instrument for chemiluminescent signal detection. Compound activity was analyzed using CBIS data analysis suite (ChemInnovation, CA). For Gs agonist mode assays, percentage activity was calculated using the following equation:

CNR1 = CNR1 (Homo sapiens, UniProt P21554); assay: cAMP CNR1 Antagonist; conditions: for Emax: read-out: Max response
Experimental: as §5, §6

OPRM1 [2] = target: T2, OPRM1; assay: cAMP OPRM1 Antagonist; conditions: for Emax: OPRM1, read-out: Max response
Experimental: as §3, §6

HTR2A = HTR2A (Homo sapiens, UniProt P28223); assay: Calcium Flux HTR2A Agonist; conditions: for Emax: read-out: Max response
Experimental: as §3
Prior to testing, cells (10,000 cells/well) were expanded from freezer stocks and seeded into a total volume of 50 μL into black walled, clear-bottom, Poly-D-lysine coated 384-well microplates and incubated at 37° C. […] Assays were performed in 1× dye loading buffer consisting of 1× Dye (DiscoverX, Calcium No Wash^PLUS kit, Catalog No. 90-0091), 1× Additive A and 2.5 mM Probenecid in HBSS/20 mM HEPES. Probenecid was prepared fresh. Prior to testing, media was aspirated from cells and replaced with 25 μL dye loading buffer. Cells were incubated for 45 min at 37° C. and then 20 min at RT. For agonist determination, 25 μL of 2× compound in HBSS/20 mM HEPES was added using a FLIPR Tetra (MDS). For antagonist determination, cells were pre-incubated with sample followed by agonist challenge at the EC80 concentration. 25 μL of 2× sample was added and cells were incubated for 30 min at RT in the dark to equilibrate plate temperature. After incubation, antagonist determination was initiated by addition of 25 μL of 1× compound with 3×EC80 agonist using FLIPR. For both agonist and antagonist formats, activity was measure on a FLIPR Tetra (MDS). Calcium mobilization was monitored for 2 min with a 5 sec baseline read.
FLIPR read—Area under the curve, was calculated for the entire 2 min read. Compound activity was analysed using CBIS data analysis suite (ChemInnovation, CA).

[3] = Pharmacokinetic analysis in naïve mice; conditions: single i.p. 300 mg/kg, male NMRI mice
Experimental: After the treatment period, blood samples were drawn from the tail veins, collected in Greiner MiniCollect K2EDTA tubes, and centrifuged twice for 5 min at 15,000 g to obtain plasma samples. Three volumes of acetonitrile were added to one volume of plasma to precipitate out the proteins. The samples were vortexed for 20 s and placed on ice. Immediately after, they were centrifuged at 5,000 g for 10 min and again at 10,000 g for 2 min. The resulting supernatants were transferred to Eppendorf tubes and centrifuged for 2 min at 10,000 g. Finally, the supernatants were collected for analysis by LC-MS/MS to determine the targeted compound concentration. Percentage recovery was determined as follows: known concentrations of the compound were spiked into the blank plasma and acetonitrile was added (3:1 ratio) to precipitate out the proteins. Samples were vortexed for 20 s and placed on ice. The resulting supernatants were isolated via centrifugation as described above. The targeted compounds were identified using LC-MS/MS to detect their characteristic ions. Plasma concentrations at each point were plotted as a function of time.
Brain samples were collected at the same time points as described for blood samples. Male NMRI mice were overdosed with dolethal via i.p. administration. Mice were perfused with 0.9% saline and brains were collected in Eppendorf tubes. Brains were weighed, whereafter 400 μL of acetonitrile was added to the samples. […] Homogenized samples were centrifuged at 5,000 g for 10 min and again at 10,000 g for 2 min. The resulting supernatants were transferred to Eppendorf tubes and centrifuged for 2 min at 10,000 g. Finally, the supernatants were collected for analysis by LC-MS/MS to determine the targeted compound concentration in the brain tissue.
The compound concentrations in mouse plasma and brain were determined by LC-MS/MS.

[4] = aqueous buffer, kinetic from dmso stock, PBS pH 7.4, tested at 200 μM, 24 h room temperature, read-out: aqueous solubility PBS (pH 7.4)
[5] = fassgf or other biorelevant, kinetic from dmso stock, simulated intestinal fluid pH 7.5, tested at 200 μM, read-out: aqueous solubility simulated intestinal fluid
[6] = kinetic from dmso stock, simulated gastric fluid pH 2, tested at 200 μM, read-out: aqueous solubility simulated gastric fluid
[7] = Calcium Flux ADORA2A Antagonist

CNR1, sequence (P21554 whole entry): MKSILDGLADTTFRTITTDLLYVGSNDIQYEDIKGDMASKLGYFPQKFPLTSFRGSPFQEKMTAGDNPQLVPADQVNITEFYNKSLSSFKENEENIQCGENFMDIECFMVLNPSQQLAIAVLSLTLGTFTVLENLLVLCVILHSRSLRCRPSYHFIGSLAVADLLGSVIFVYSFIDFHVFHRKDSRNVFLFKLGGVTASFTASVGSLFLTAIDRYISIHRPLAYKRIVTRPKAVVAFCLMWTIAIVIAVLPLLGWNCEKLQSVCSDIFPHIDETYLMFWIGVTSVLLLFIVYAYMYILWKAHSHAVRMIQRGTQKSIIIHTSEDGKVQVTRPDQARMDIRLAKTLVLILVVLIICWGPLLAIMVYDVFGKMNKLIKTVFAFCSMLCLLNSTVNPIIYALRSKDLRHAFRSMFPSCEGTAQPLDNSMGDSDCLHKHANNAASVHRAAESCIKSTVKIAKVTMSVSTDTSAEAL
HRH1, sequence (P35367 whole entry): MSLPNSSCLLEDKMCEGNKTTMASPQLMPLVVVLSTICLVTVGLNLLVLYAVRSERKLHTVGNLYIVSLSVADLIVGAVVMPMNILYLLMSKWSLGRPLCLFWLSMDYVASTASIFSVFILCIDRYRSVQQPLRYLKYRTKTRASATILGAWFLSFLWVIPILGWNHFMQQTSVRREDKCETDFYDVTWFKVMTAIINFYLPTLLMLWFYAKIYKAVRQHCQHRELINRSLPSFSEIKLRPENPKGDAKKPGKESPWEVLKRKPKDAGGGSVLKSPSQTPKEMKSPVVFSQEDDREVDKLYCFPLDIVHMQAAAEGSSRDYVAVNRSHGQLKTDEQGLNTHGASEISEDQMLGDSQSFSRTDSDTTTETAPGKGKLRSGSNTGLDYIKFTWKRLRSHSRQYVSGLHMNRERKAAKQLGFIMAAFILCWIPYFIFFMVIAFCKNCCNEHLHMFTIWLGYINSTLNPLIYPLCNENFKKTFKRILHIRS
CNR2, sequence (P34972 whole entry): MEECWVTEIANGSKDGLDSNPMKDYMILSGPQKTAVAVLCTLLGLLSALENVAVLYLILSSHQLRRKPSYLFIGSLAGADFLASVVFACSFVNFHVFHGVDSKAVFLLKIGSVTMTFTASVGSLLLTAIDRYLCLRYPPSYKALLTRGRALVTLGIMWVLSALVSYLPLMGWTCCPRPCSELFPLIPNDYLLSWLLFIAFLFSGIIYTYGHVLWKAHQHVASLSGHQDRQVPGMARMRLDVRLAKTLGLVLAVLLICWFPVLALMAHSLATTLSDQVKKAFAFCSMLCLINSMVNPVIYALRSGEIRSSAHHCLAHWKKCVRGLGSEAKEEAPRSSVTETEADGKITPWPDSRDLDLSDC
HTR2A, sequence (P28223 whole entry): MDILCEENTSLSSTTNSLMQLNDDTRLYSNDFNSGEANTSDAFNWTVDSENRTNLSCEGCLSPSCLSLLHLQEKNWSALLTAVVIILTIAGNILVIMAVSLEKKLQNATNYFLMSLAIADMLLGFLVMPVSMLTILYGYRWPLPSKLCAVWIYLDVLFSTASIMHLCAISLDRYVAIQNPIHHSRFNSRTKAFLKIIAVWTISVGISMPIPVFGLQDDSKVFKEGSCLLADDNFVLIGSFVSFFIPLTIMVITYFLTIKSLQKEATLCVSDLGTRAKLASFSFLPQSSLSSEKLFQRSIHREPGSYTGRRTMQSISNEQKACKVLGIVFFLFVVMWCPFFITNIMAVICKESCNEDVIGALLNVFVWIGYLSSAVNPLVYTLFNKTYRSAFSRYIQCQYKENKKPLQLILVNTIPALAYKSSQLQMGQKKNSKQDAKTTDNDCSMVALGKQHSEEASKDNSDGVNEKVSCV
hERG, sequence (Q12809 whole entry): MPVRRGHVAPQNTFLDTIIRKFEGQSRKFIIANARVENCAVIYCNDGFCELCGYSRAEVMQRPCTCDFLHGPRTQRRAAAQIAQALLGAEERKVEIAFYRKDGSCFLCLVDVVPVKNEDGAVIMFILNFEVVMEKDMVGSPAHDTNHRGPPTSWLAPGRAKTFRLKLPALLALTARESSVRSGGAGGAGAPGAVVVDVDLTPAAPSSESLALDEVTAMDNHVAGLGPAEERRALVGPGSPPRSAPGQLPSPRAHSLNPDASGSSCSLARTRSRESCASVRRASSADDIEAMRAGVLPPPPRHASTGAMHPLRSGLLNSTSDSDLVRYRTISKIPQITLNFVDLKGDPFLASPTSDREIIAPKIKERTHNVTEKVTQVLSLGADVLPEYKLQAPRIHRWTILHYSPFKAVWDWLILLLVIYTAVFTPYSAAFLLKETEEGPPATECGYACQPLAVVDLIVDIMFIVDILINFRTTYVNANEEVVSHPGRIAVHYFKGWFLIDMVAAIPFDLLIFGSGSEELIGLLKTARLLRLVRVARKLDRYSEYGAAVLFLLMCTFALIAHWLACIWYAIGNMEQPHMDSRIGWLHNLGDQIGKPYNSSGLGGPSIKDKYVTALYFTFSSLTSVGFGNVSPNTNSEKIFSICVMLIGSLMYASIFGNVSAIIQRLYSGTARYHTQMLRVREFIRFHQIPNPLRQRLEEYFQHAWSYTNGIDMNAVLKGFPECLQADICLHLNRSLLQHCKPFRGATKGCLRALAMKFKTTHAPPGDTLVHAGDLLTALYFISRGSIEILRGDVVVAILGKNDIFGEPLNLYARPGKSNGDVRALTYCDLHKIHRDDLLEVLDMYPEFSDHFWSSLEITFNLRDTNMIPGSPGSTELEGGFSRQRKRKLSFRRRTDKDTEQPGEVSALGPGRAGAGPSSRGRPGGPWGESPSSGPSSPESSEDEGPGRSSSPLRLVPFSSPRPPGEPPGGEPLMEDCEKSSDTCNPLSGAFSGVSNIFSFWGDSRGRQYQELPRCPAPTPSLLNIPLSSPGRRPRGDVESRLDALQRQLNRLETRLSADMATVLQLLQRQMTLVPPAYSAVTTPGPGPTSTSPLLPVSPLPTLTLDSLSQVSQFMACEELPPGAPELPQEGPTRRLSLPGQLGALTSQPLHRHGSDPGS
T2 sequence (P35372 whole entry): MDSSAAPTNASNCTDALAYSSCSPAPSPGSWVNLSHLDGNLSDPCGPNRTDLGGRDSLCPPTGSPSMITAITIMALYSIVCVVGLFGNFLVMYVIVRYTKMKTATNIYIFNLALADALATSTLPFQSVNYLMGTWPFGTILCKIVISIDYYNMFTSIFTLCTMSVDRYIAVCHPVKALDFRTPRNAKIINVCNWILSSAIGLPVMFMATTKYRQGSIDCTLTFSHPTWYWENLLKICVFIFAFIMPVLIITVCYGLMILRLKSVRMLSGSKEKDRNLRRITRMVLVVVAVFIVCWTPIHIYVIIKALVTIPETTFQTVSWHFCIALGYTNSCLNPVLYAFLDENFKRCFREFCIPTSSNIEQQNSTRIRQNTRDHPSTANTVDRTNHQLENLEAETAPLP
ADORA2A, sequence (P29274 whole entry): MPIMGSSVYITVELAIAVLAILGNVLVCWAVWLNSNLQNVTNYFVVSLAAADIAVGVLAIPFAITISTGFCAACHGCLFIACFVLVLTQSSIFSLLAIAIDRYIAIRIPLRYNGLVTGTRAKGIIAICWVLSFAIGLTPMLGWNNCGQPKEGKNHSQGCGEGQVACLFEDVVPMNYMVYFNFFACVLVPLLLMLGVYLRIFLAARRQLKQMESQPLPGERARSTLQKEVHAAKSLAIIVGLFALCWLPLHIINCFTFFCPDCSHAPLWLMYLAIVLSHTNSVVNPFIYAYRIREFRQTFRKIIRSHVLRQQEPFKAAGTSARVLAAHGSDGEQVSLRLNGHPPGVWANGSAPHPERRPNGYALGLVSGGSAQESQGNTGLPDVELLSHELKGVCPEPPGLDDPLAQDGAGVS
DRD2S, sequence (P14416 1-414 isoform P14416-2): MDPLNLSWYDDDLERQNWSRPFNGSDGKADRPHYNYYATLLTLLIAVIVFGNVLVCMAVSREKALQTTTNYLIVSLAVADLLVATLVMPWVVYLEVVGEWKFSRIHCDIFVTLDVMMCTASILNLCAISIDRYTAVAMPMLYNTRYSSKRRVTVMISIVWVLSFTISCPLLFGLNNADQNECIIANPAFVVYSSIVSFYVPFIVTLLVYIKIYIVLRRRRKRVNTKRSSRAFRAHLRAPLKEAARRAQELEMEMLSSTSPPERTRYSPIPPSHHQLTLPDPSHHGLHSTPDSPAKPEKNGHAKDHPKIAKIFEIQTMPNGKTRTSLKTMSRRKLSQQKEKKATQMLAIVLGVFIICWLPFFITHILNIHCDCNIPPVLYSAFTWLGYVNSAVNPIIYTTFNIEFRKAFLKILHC

CC(C)(C)c1ccc(C#CC(O)c2ccccc2)cc1 (racemic) [Compound 3.3, rac-3-(4-(tert-butyl)phenyl)-1-phenylprop-2-yn-1-ol]
mean seizure duration (male NMRI mice; 30 mg/kg i.p.): 9.5 s | mean seizure duration (male NMRI mice; 100 mg/kg i.p.): 7.7 s | mean seizure duration (male NMRI mice; 200 mg/kg i.p.): 1.1 s | mean seizure duration (male NMRI mice; 300 mg/kg i.p.): 0 s | mean seizure duration (male NMRI mice; 600 mg/kg i.p.): 1.00 s | dose-response relationship (in words) (male NMRI mice): displayed a dose-response relationship | solubility at 24 h (Aqueous solubility; [4]): 17.7 µM (≈ 4.68 µg/mL) | solubility at 24 h (Aqueous solubility; [5]): 102 µM (≈ 27.1 µg/mL) | solubility at 24 h (Aqueous solubility; [6]): 24.5 µM (≈ 6.48 µg/mL) | IC50 (ADORA2A; [7]): > 10 µM | Emax (ADORA2A): 0% | IC50 (CCKAR; Calcium Flux CCKAR Antagonist): > 10 µM | Emax (CCKAR): 0% | IC50 (HRH1): > 10 µM | Emax (HRH1): 0% | Emax at 30 min (hERG): 3.8% | IC50 (hERG): > 10 µM | IC50 (nAChR (a4/b2)): 6.9 µM | Emax (nAChR (a4/b2)): 73.9% | EC50 (CNR2): > 10 µM | Emax (CNR2): 38.1% | EC50 (DRD2S): > 10 µM | Emax (DRD2S): 0% | EC50 (OPRM1 [1]): > 10 µM | Emax (OPRM1 [1]): 0% | IC50 (CNR1): > 10 µM | Emax (CNR1): 17.5% | IC50 (OPRM1 [2]): > 10 µM | Emax (OPRM1 [2]): 0.8% | EC50 (HTR2A): > 10 µM | Emax (HTR2A): 0% | time at which brain concentration peaked [3]: 30 min | time at which plasma concentration peaked [3]: 30 min

Clc1cccc(C#Cc2n[nH]c3ncccc23)c1 [Compound 10.1, 3-((3-chlorophenyl)ethynyl)-1H-pyrazolo[3,4-b]pyridine]
mean seizure duration (male NMRI mice; 10 mg/kg i.p.): 6.2 s | mean seizure duration (male NMRI mice; 30 mg/kg i.p.): 5.5 s | mean seizure duration (male NMRI mice; 100 mg/kg i.p.): 6.0 s | mean seizure duration (male NMRI mice; 200 mg/kg i.p.): 8.5 s | mean seizure duration (male NMRI mice; 300 mg/kg i.p.): 3.0 s | mean seizure duration (male NMRI mice; 400 mg/kg i.p.): 1.2 s | mean seizure duration (male NMRI mice; 600 mg/kg i.p.): 0.8 s | dose-response relationship (in words) (male NMRI mice): displayed a dose-response relationship | solubility at 24 h (Aqueous solubility; PBS pH 7.4, tested at 200 μM, 24 h room temperature, read-out: aqueous solubility PBS (pH 7.4)): <0.1 µM | solubility at 24 h (Aqueous solubility; [4]): < 0.1 µM | solubility at 24 h (Aqueous solubility; [5]): 26.7 µM (≈ 6.77 µg/mL) | solubility at 24 h (Aqueous solubility; [6]): 26.7 µM (≈ 6.77 µg/mL) | Emax (ADORA2A; [7]): 0% | IC50 (ADORA2A; [7]): > 10 µM | Emax (CCKAR; Calcium Flux CCKAR Antagonist): 0% | IC50 (CCKAR; Calcium Flux CCKAR Antagonist): > 10 µM | Emax (HRH1; Calcium Flux HRH1 Antagonist): 1% | IC50 (HRH1; Calcium Flux HRH1 Antagonist, read-out: RC50, result type IC50): > 10 µM | Emax at 30 min (hERG): 6.6% | IC50 (hERG): > 10 µM | IC50 (nAChR (a4/b2)): > 10 µM | Emax (nAChR (a4/b2)): 1.5% | EC50 (CNR2): > 10 µM | Emax (CNR2): 49.3% | EC50 (DRD2S): > 10 µM | Emax (DRD2S): 15% | EC50 (OPRM1 [1]): > 10 µM | Emax (OPRM1 [1]): 9.9% | IC50 (CNR1): > 10 µM | Emax (CNR1): 0% | IC50 (OPRM1 [2]): > 10 µM | Emax (OPRM1 [2]): 0% | EC50 (HTR2A): > 10 µM | Emax (HTR2A): 0% | time at which brain concentration peaked [3]: 150 min | time at which plasma concentration peaked [3]: 60 to 240 min
